SMILES strings stand for the structures.

One data set relates to Cancer cells (KG-1). Description: Cytotoxicity assay, WST-1, KG-1. In kind it is cell-based. The settings on record: Homo sapiens; KG-1 cells, 72 hours, WST-1. Here is the method:
To evaluate the effect of the compounds of the present disclosure on cancer cells, a cytotoxicity assay was conducted as follows.
Cancer cells (KG-1) were seeded at a concentration of 10,000 cells per well into a 96-well plate. Then, the cells were treated with predetermined concentrations of compounds of the Examples and comparative substances (comparative compounds 1, 2, 3). After 72 hours, the cells were incubated with WST-1 reagent for one hour. Then, absorbance was measured at 450 nm using a spectramax spectrophotometer to assess the degree of cancer cell apoptosis. The IC50 (μM) values were calculated using the measured values with the GraphPad Prism program and the measurements are summarized in Table 1.
In the case of `O=C1CCC(N2Cc3cc(CNC(=O)c4cc5ccccc5cn4)ccc3C2=O)C(=O)N1` (centres unmarked) [Comparative Compound 1, N-((2-(2,6-Dioxopiperidin-3-yl)-1-oxoisoindolin-5-yl)methyl)isoquinoline-3-carboxamide, reference compound], the IC50 fell in the range of 10 to 50 µM.

In turn, `O=C1CCC(N2Cc3cc(CNC(=O)c4cnc5ccccc5n4)ccc3C2=O)C(=O)N1` (centres unmarked) [Comparative Compound 2, N-((2-(2,6-Dioxopiperidin-3-yl)-1-oxoisoindolin-5-yl)methyl)quinoxaline-2-carboxamide, reference compound] came in with an IC50 of 10 to 50 µM.

In turn, `O=C1CCC(N2Cc3cc(CNC(=O)c4ccc5cc(Cl)ccc5n4)ccc3C2=O)C(=O)N1` (centres unmarked) [Comparative Compound 3, 6-Chloro-N-((2-(2,6-dioxopiperidin-3-yl)-1-oxoisoindolin-5-yl)methyl)quinoline-2-carboxamide, reference compound] came in with a half-maximal inhibitory concentration (IC50) of 10 to 50 µM.

In turn, `O=C1CCC(N2Cc3cc(CNC(=O)c4ccccc4)ccc3C2=O)C(=O)N1` (centres unmarked) [Comparative substance, reference compound] displayed an IC50 of 10 to 50 µM.

Molecule `O=C1CCC(N2Cc3cc(CNC(=O)c4n[nH]c5cc(Cl)ccc45)ccc3C2=O)C(=O)N1` (centres unmarked) [Compound 1, 6-Chloro-N-((2-(2,6-dioxopiperidin-3-yl)-1-oxoisoindolin-5-yl)methyl)-1H-indazole-3-carboxamide] showed an IC50 of 0.0001 to 0.01 µM.

In turn, `O=C1CCC(N2Cc3cc(CNC(=O)c4cc(-c5ccc(Cl)cc5)n[nH]4)ccc3C2=O)C(=O)N1` (centres unmarked) [Compound 2, 3-(4-Chlorophenyl)-N-((2-(2,6-dioxopiperidin-3-yl)-1-oxoisoindolin-5-yl)methyl)-1H-pyrazole-5-carboxamide] yielded a 50% inhibitory concentration (IC50) of 0.0001 to 0.01 µM.

Molecule `O=C1CCC(N2Cc3cc(CNC(=O)c4n[nH]c5cc(Cl)c(Cl)cc45)ccc3C2=O)C(=O)N1` (centres unmarked) [Compound 4, 5,6-Dichloro-N-((2-(2,6-dioxopiperidin-3-yl)-1-oxoisoindolin-5-yl)methyl)-1H-indazole-3-carboxamide] displayed a half-maximal inhibitory concentration (IC50) of 0.0001 to 0.01 µM.

`O=C1CCC(N2Cc3cc(CNC(=O)c4cc(-c5cccc(Cl)c5)n[nH]4)ccc3C2=O)C(=O)N1` (centres unmarked) [Compound 5, 3-(3-Chlorophenyl)-N-((2-(2,6-dioxopiperidin-3-yl)-1-oxoisoindolin-5-yl)methyl)-1H-pyrazole-5-carboxamide] showed an IC50 of 0.0001 to 0.01 µM.

The molecule `O=C1CCC(N2Cc3cc(CNC(=O)c4c[nH]c5cc(Cl)ccc45)ccc3C2=O)C(=O)N1` (centres unmarked) [Compound 6, 6-chloro-N-((2-(2,6-dioxopiperidin-3-yl)-1-oxoisoindolin-5-yl)methyl)-1H-indole-3-carboxamide] returned an IC50 of 0.01 to 1 µM.

In turn, `O=C1CCC(N2Cc3cc(CNC(=O)c4c[nH]c5ccc(Cl)cc45)ccc3C2=O)C(=O)N1` (centres unmarked) [Compound 7, 5-Chloro-N-((2-(2,6-dioxopiperidin-3-yl)-1-oxoisoindolin-5-yl)methyl)-1H-indole-3-carboxamide] yielded an IC50 of 0.01 to 1 µM.

For the molecule `O=C1CCC(N2Cc3cc(CNC(=O)c4n[nH]c5ccc(Cl)cc45)ccc3C2=O)C(=O)N1` (centres unmarked) [Compound 8, 5-Chloro-N-((2-(2,6-dioxopiperidin-3-yl)-1-oxoisoindolin-5-yl)methyl)-1H-indazole-3-carboxamide], the half-maximal inhibitory concentration (IC50) was in the range of 0.01 to 1 µM.

`O=C1CCC(N2Cc3cc(CNC(=O)c4cc5ccc(Cl)cc5[nH]4)ccc3C2=O)C(=O)N1` (centres unmarked) [Compound 9, 6-chloro-N-((2-(2,6-dioxopiperidin-3-yl)-1-oxoisoindolin-5-yl)methyl)-1H-indole-2-carboxamide] showed a half-inhibitory concentration (IC50) of 0.01 to 1 µM.

In turn, `O=C1CCC(N2Cc3cc(CNC(=O)c4cc(-c5ccc(Cl)cc5)on4)ccc3C2=O)C(=O)N1` (centres unmarked) [Compound 11, 5-(4-Chlorophenyl)-N-((2-(2,6-dioxopiperidin-3-yl)-1-oxoisoindolin-5-yl)methyl)isoxazole-3-carboxamide] showed an IC50 of 0.0001 to 0.01 µM.

For the molecule `O=C1CCC(N2Cc3cc(CNC(=O)c4cc(-c5cccc(Cl)c5)c[nH]4)ccc3C2=O)C(=O)N1` (centres unmarked) [Compound 14, 4-(3-Chlorophenyl)-N-((2-(2,6-dioxopiperidin-3-yl)-1-oxoisoindolin-5-yl)methyl)-1H-pyrrole-2-carboxamide], the IC50 was in the range of 0.0001 to 0.01 µM.

Molecule `O=C1CCC(N2Cc3cc(CNC(=O)c4cn(-c5cccc(Cl)c5)nn4)ccc3C2=O)C(=O)N1` (centres unmarked) [Compound 15, 1-(3-chlorophenyl)-N-((2-(2,6-dioxopiperidin-3-yl)-1-oxoisoindolin-5-yl)methyl)-1H-1,2,3-triazole-4-carboxamide] returned an IC50 of 0.0001 to 0.01 µM.

Molecule `O=C1CCC(N2Cc3cc(CNC(=O)c4nc5cc(Cl)c(Cl)cc5[nH]4)ccc3C2=O)C(=O)N1` (centres unmarked) [Compound 16, 5,6-dichloro-N-((2-(2,6-dioxopiperidin-3-yl)-1-oxoisoindolin-5-yl)methyl)-1H-benzo[d]imidazole-2-carboxamide] displayed an IC50 of 0.01 to 1 µM.

The molecule `Cc1c(C(=O)NCc2ccc3c(c2)CN(C2CCC(=O)NC2=O)C3=O)n[nH]c1-c1ccccc1` (centres unmarked) [Compound 17, N-((2-(2,6-Dioxopiperidin-3-yl)-1-oxoisoindolin-5-yl)methyl)-4-methyl-5-phenyl-1H-pyrazole-3-carboxamide] had an IC50 of 0.0001 to 0.01 µM.

`O=C1CCC(N2Cc3cc(CNC(=O)c4cc(-c5ccc(Cl)cc5)ccn4)ccc3C2=O)C(=O)N1` (centres unmarked) [Compound 18, 4-(4-chlorophenyl)-N-((2-(2,6-dioxopiperidin-3-yl)-1-oxoisoindolin-5-yl)methyl)picolinamide] had an IC50 of 0.0001 to 0.01 µM.

`O=C1CCC(N2Cc3cc(CNC(=O)c4cc(-c5cccc(Cl)c5)on4)ccc3C2=O)C(=O)N1` (centres unmarked) [Compound 19, 5-(3-Chlorophenyl)-N-((2-(2,6-dioxopiperidin-3-yl)-1-oxoisoindolin-5-yl)methyl)isoxazole-3-carboxamide] yielded a half-maximal inhibitory concentration (IC50) of 0.0001 to 0.01 µM.

Molecule `O=C1CCC(N2Cc3cc(CNC(=O)c4ncc(-c5cccc(Cl)c5)cn4)ccc3C2=O)C(=O)N1` (centres unmarked) [Compound 20, 5-(3-Chlorophenyl)-N-((2-(2,6-dioxopiperidin-3-yl)-1-oxoisoindolin-5-yl)methyl)pyrimidine-2-carboxamide] returned an IC50 of 0.0001 to 0.01 µM.

In turn, `Cc1c(C(=O)NCc2ccc3c(c2)CN(C2CCC(=O)NC2=O)C3=O)nn(Cc2ccccc2)c1-c1cccc(Cl)c1` (centres unmarked) [Compound 21, 1-Benzyl-5-(3-chlorophenyl)-N-((2-(2,6-dioxopiperidin-3-yl)-1-oxoisoindolin-5-yl)methyl)-4-methyl-1H-pyrazole-3-carboxamide] displayed an IC50 of 0.0001 to 0.01 µM.

For the molecule `Cn1nc(C(=O)NCc2ccc3c(c2)CN(C2CCC(=O)NC2=O)C3=O)cc1-c1ccccc1` (centres unmarked) [Compound 23, N-((2-(2,6-Dioxopiperidin-3-yl)-1-oxoisoindolin-5-yl)methyl)-1-methyl-5-phenyl-1H-pyrazole-3-carboxamide], the IC50 was 0.0001 to 0.01 µM.

Staying with this data set, now noted: R1 bicyclic heteroaryl compared to monocyclic aryl (comparative substance) or heteroaryl (Compounds 37 and 38).
With `O=C1CCC(N2Cc3cc(CNC(=O)c4nc5cc(Cl)ccc5[nH]4)ccc3C2=O)C(=O)N1` (centres unmarked) [Compound 3, 5-Chloro-N-((2-(2,6-dioxopiperidin-3-yl)-1-oxoisoindolin-5-yl)methyl)-1H-benzo[d]imidazole-2-carboxamide], the “cytotoxic activity against KG-1 and NCI-H1155 cancer cells (in words)” value is given as “more potent cytotoxic activity”.

With `O=C1CCC(N2Cc3cc(CNC(=O)c4c[nH]c5ccc(Cl)cc45)ccc3C2=O)C(=O)N1` (centres unmarked) [Compound 7, 5-Chloro-N-((2-(2,6-dioxopiperidin-3-yl)-1-oxoisoindolin-5-yl)methyl)-1H-indole-3-carboxamide], the “cytotoxic activity against KG-1 and NCI-H1155 cancer cells (in words)” value is listed as “more potent cytotoxic activity”.

The same data set, now with this note: monocyclic heteroaryl R1 and aryl R2 compared to bicyclic heteroaryl R1 (Compounds 8, 9, and 26).
For the molecule `Cc1c(C(=O)NCc2ccc3c(c2)CN(C2CCC(=O)NC2=O)C3=O)n[nH]c1-c1ccccc1` (centres unmarked) [Compound 17, N-((2-(2,6-Dioxopiperidin-3-yl)-1-oxoisoindolin-5-yl)methyl)-4-methyl-5-phenyl-1H-pyrazole-3-carboxamide], the “activity (in words)” value is reported as “significantly more potent activity”.

As for `Cn1nc(C(=O)NCc2ccc3c(c2)CN(C2CCC(=O)NC2=O)C3=O)cc1-c1ccccc1` (centres unmarked) [Compound 23, N-((2-(2,6-Dioxopiperidin-3-yl)-1-oxoisoindolin-5-yl)methyl)-1-methyl-5-phenyl-1H-pyrazole-3-carboxamide], the “activity (in words)” value is “significantly more potent activity”.

Source of the values: patent US20250346575A1, “ISOINDOLINONE DERIVATIVE HAVING GLUTARIMIDE MOTHER NUCLEUS, AND USE THEREOF” (KOREA RESEARCH INSTITUTE OF CHEMICAL TECHNOLOGY, priority 2021, published 2025).
